Data from patent US20240109917A1 (ACTELION PHARMACEUTICALS LTD, priority 2020, published 2024).

Biological target: VEGFR2, unphosphorylated (Homo sapiens (Human), UniProt P35968)
Assay: VEGFR ADP GLO Assay
Assay type: biochemical

Chain of VEGFR2, unphosphorylated (P35968 20-1356): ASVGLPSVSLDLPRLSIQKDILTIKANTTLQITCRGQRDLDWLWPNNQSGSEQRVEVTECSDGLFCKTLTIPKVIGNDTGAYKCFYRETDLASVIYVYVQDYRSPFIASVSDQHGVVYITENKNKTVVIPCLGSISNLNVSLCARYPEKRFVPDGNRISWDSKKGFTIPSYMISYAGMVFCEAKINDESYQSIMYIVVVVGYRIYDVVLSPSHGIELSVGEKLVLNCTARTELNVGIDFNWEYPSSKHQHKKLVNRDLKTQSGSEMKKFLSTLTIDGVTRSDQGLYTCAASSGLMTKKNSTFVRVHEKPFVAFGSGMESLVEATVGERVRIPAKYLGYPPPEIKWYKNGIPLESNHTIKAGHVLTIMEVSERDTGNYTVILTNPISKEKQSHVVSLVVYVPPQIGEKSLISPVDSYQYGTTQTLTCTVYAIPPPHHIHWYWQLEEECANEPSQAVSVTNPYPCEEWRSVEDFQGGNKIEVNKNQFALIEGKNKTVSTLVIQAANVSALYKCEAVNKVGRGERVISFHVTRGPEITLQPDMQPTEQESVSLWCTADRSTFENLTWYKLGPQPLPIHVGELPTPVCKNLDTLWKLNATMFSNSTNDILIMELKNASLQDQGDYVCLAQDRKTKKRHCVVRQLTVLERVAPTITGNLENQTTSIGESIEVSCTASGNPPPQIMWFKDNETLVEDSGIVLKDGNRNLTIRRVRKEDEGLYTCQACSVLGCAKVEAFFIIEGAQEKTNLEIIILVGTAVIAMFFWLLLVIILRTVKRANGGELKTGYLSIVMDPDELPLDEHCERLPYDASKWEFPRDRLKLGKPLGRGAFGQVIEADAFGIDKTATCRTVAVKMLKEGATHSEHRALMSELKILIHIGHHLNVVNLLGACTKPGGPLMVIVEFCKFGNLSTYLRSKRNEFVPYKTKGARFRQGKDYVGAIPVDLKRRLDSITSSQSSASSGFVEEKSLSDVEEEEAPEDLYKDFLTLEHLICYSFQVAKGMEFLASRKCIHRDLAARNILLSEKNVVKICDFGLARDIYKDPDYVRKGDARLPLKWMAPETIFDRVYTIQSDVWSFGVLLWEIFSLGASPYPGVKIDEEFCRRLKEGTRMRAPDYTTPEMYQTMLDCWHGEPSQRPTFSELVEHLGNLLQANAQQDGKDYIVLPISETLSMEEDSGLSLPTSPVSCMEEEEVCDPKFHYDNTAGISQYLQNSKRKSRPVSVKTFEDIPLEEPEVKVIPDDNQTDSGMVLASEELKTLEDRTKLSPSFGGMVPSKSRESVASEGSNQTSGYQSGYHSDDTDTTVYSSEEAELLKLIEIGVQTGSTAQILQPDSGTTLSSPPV

SMILES | IC50
COCCn1cc(-c2cn3ncc(C(=O)Nc4cc(NC(=O)CN5CCC6(CC6)C5)cnc4C)c3s2)cn1 [Example 326, N-(5-(2-(5-azaspiro[2.4]heptan-5-yl)acetamido)-2-methylpyridin-3-yl)-2-(1-(2-methoxyethyl)-1H-pyrazol-4-yl)pyrazolo[5,1-b]thiazole-7-carboxamide] | > 7.5 µM
COCCn1cc(-c2cn3ncc(C(=O)Nc4cc(NC(=O)CN5CCCC5(C)C)cnc4C)c3s2)cn1 [Example 329, N-(5-(2-(2,2-dimethylpyrrolidin-1-yl)acetamido)-2-methylpyridin-3-yl)-2-(1-(2-methoxyethyl)-1H-pyrazol-4-yl)pyrazolo[5,1-b]thiazole-7-carboxamide] | > 7.5 µM
COCCn1cc(-c2cn3ncc(C(=O)Nc4cc(NC(=O)CN5CCC[C@H]5C)cnc4C)c3s2)cn1 [Example 330, (R)-2-(1-(2-methoxyethyl)-1H-pyrazol-4-yl)-N-(2-methyl-5-(2-(2-methylpyrrolidin-1-yl)acetamido)pyridin-3-yl)pyrazolo[5,1-b]thiazole-7-carboxamide] | > 7.5 µM
